Measurements as given in PubChem BioAssay (NCI).
Values joined by “and” are separate entries in the source; they are usually repeats but may differ in a detail not shown here. Equal values may be shown once.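 Method: 48-hour compound exposure of cells in 96-well plates, five concentrations, linear interpolation of endpoints. Abbreviation: GI50, concentration required for 50% inhibition of growth. Definition used: TGI = concentration required for complete inhibition of growth.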

How the values were obtained:
Experiment in all cases: NCI tumour cell line growth inhibition, 48 h
[1] = test system: HOP-62 NSCLC
[2] = test system: IGROV1 ovarian
[3] = test system: K-562 leukemia
[4] = test system: M14 melanoma
[5] = test system: MCF7 breast
[6] = test system: RXF 393 renal
[7] = test system: SK-MEL-5 melanoma
[8] = test system: T-47D breast
[9] = test system: U251 CNS
[10] = test system: UACC-62 melanoma

Compound	GI50 [1]	TGI [1]	GI50 [2]	TGI [2]	GI50 [3]	TGI [3]	GI50 [4]	TGI [4]	GI50 [5]	TGI [5]	GI50 [6]	TGI [6]	GI50 [7]	TGI [7]	GI50 [8]	TGI [8]	GI50 [9]	TGI [9]	GI50 [10]	TGI [10]
COc1cc(C(=O)N2CCN(c3ccccc3OC)CC2)c(N)cc1OCc1ccccc1	34.4 µM	> 100 µM	28.5 µM	> 100 µM	27.2 µM	> 100 µM	39.3 µM	> 100 µM	29.3 µM	> 100 µM	25.3 µM	85.9 µM	16.5 µM	31.4 µM	26.2 µM	99.5 µM	41.8 µM	> 100 µM	26 µM	77.1 µM
Nc1nc(Cl)c(N=Nc2ccc(Cl)cc2)c(NCC2(CO)CC(OCc3ccccc3)C2)n1 (stereo not given)	–	49.4 µM and > 100 µM and 22.5 µM	–	70.3 µM and > 100 µM and 29.9 µM	2.76 µM	10.3 µM and > 100 µM	–	> 100 µM and 18.7 µM	3.9 µM and 31.3 µM and 7.84 µM	14.2 µM and > 100 µM and 22.6 µM	5.17 µM and > 48.3 µM and 8.18 µM	19.7 µM and > 100 µM and 25.6 µM	–	21 µM and > 100 µM and 38.7 µM	8.73 µM	73.1 µM and > 100 µM and > 77.2 µM	–	28.5 µM and > 100 µM and 36 µM	–	55.2 µM and > 100 µM and 25.1 µM
CC(=O)c1c(O)ccc2c(C)c(C(=O)O)oc12	> 100 µM	> 100 µM	> 100 µM	> 100 µM	> 100 µM	> 100 µM	> 100 µM	> 100 µM	> 100 µM	> 100 µM	> 100 µM	> 100 µM	> 100 µM	> 100 µM	> 100 µM	> 100 µM	> 100 µM	> 100 µM	80.4 µM	> 100 µM
COc1ccc(Cn2cnc3cc(C(=O)Nc4cccc5ccccc45)ccc32)c(OC)c1	–	–	0.0653 µM	> 100 µM	0.0344 µM	> 100 µM	0.0275 µM	–	0.0357 µM	> 100 µM	0.0355 µM	> 100 µM	0.0502 µM	6.71 µM	0.0372 µM	> 100 µM	0.0398 µM	> 100 µM	0.0531 µM	> 66.7 µM
O=c1[nH]ccc2nc(-c3ccc(CN4CCC(c5nc(-c6ccccn6)n[nH]5)CC4)cc3)c(-c3ccccc3)cc12	27.8 µM	> 100 µM	0.0652 µM	> 100 µM	18.9 µM	> 100 µM	22.2 µM	> 100 µM	0.282 µM	33.2 µM	0.272 µM	4.73 µM	6.03 µM	24 µM	–	0.0729 µM	13.2 µM	> 66.6 µM	16.3 µM	> 86.6 µM
O=C1/C(=C/c2ccc(Cl)cc2)CN(Cc2cn(CCNc3ccnc4cc(Cl)ccc34)nn2)C/C1=C\c1ccc(Cl)cc1	0.272 µM	0.729 µM	0.276 µM	0.732 µM	0.302 µM	1.08 µM	0.56 µM	2.21 µM	0.376 µM	1.37 µM	0.201 µM	0.416 µM	0.807 µM	2.08 µM	0.946 µM	3.62 µM	0.185 µM	0.391 µM	0.528 µM	1.92 µM
